Test results published in patent publication US9546157B2, “Asymmetric piperidinyl-substituted ureas as medicines” (Helsinn Healthcare SA, priority 2014, dated 2017).

Tests used:
GHSR1a [1] = target: T1, GHSR1a (Homo sapiens, UniProt Q92847); experiment: Calcium FLIPR assay, GHSR-1a antagonism (reduction of ghrelin response); assay type: cell-based; details: HEK293/GHSR1a cells, ghrelin 10 nM
T1 construct: expressed in transfected cells; host or cells: HEK293
Summary of the method: (§1)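 HEK293 cells expressing GHSR1a, seeded 24 hr earlier and loaded with calcium dye for 30-60 min at room temperature or 37° C, were read by FLIPR fluorescence. Agonism: compound added at t=20 sec, calcium followed 2 minutes. Antagonism: compound plus ghrelin (10 nM) at t=20 sec; potency from reduction of ghrelin response.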

[2] = Metabolic Stability (H = Human); assay type: in vitro ADME
GHSR1a [3] = target: T1, GHSR1a; experiment: Calcium FLIPR assay, GHSR-1a agonism; assay type: cell-based; design: Emax: unit not given here; details: HEK293/GHSR1a cells
Summary of the method: as §1

C57BL/6J mice = experiment: Food intake test in mouse (GHSR1a antagonists); assay type: in vivo
Procedure: Male C57BL/6J mice, 18-22 g body weight, were fasted overnight (16 h before compound administration) and placed in a regular light dark cycle (6:00-18:00 light/18:00-6:00 dark). After 1 wk acclimation, animals were sorted into two groups (n=6 each, 2 per cage) based on body weight. Animals in group one were be treated with vehicle and animals in group 2 were treated with the test agent (n=6 for each group). The cumulative food intake was evaluated at 1, 2, 4, 8 and 24 hrs after drug or vehicle treatment. Food intake was measured by subtracting uneaten food from the initial premeasured food.

[4] = Metabolic Stability (M = Mouse); assay type: in vitro ADME
[5] = Mus musculus, ip, 1 h, i.p. 10 mg/kg
[6] = Mus musculus, ip, 2 h, i.p. 10 mg/kg

T1 sequence (Q92847 whole entry): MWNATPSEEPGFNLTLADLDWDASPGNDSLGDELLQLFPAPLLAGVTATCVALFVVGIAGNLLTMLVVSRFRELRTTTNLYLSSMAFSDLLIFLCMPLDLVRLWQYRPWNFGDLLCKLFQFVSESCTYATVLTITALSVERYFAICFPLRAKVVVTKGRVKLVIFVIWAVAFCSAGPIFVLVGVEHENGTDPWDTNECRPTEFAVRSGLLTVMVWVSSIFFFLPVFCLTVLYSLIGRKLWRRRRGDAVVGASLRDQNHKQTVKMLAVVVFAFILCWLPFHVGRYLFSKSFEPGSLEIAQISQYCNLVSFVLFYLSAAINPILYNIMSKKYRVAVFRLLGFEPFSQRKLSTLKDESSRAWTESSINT

IC50 (GHSR1a [1]) [nM]	Metabolic Stability H [2]	EC50 (GHSR1a [3]) [nM]	Metabolic Stability M [4]	Compound	inhibition in vivo at 10 mg/kg (C57BL/6J mice; [5]) [%]	Mouse Food Intake, result in words (C57BL/6J mice; PO, dose not given)	further results
29	High H High M	2000	High H High M	CC(NC(=O)N(C)C1CCN(C)CC1)c1ccc(-c2ccccc2)c(Cl)c1Cl (centres unmarked) [Compound H0509, 3-(1-(2,3-dichloro-[1,1′-biphenyl]-4-yl)ethyl)-1-methyl-1-(1-methylpiperidin-4-yl)urea]	66		Emax (GHSR1a [3]): 1790
5	High H High M	> 30000	High H High M	CC(NC(=O)N(C)C1CCN(C)CC1)c1ccc(-c2ccc(C(N)=O)s2)c(Cl)c1Cl (centres unmarked) [Compound H0691, 5-(2,3-dichloro-4-(1-(3-methyl-3-(1-methylpiperidin-4-yl)ureido)ethyl)phenyl)thiophene-2-carboxamide]		not active	inhibition in vivo at 10 mg/kg (C57BL/6J mice; [6]): 62%
20	High H High M	> 30000	High H High M	CC(NC(=O)N(C)C1CCN(C)CC1)c1ccc(-c2cncc(C#N)c2)c(Cl)c1Cl (centres unmarked) [Compound H0613, 3-(1-(2,3-dichloro-4-(5-cyanopyridin-3-yl)phenyl)ethyl)-1-methyl-1-(1-methylpiperidin-4-yl)urea]		inhibition at 1 h	Mouse Food Intake, result in words (C57BL/6J mice; IP + ANAM 30 mpk PO, at 1 h): inhibition; Mouse Food Intake, result in words (C57BL/6J mice; i.p. 10 mg/kg): NSE
11	High H High M	> 30000	High H High M	CC(NC(=O)N(C)C1CCN(C)CC1)c1ccc(C#Cc2nccs2)c(Cl)c1Cl (centres unmarked) [Compound H0754, 3-(1-(2,3-dichloro-4-(thiazol-2-ylethynyl)phenyl)ethyl)-1-methyl-1-(1-methylpiperidin-4-yl)urea]	74	no effect	Mouse Food Intake, result in words (C57BL/6J mice; PO + ANA (ANAM), mice, dose not given): no effect
24	Medium H Medium M	> 30000	Medium H Medium M	CC(NC(=O)N(C)C1CCN(C)CC1)c1ccc(-c2ccncc2)c(Cl)c1Cl (centres unmarked) [Compound H0497, 3-(1-(2,3-dichloro-4-(pyridin-4-yl)phenyl)ethyl)-1-methyl-1-(1-methylpiperidin-4-yl)urea]			Mouse Food Intake, result in words (C57BL/6J mice; i.p. 30 mg/kg): NSE (30 mg/kg)
14	High H High M	> 30000	High H High M	CC(NC(=O)N(C)C1CCN(C)CC1)c1ccc(-c2cccc(N)c2)c(Cl)c1Cl (centres unmarked) [Compound H0510, 3-(1-(3′-amino-2,3-dichloro-[1,1′-biphenyl]-4-yl)ethyl)-1-methyl-1-(1-methylpiperidin-4-yl)urea]			inhibition in vivo at 30 mg/kg (C57BL/6J mice; Mus musculus, ip, 4 h, i.p. 30 mg/kg): 35%
3	High H High M	> 30000	High H High M	CCC(NC(=O)N(C)C1CCN(C)CC1)c1ccc(-c2cnccn2)c(Cl)c1Cl (centres unmarked) [Compound H0829, 3-(1-(2,3-dichloro-4-(pyrazin-2-yl)phenyl)propyl)-1-methyl-1-(1-methylpiperidin-4-yl)urea]			Mouse Food Intake, result in words (C57BL/6J mice; PO 10 mg/kg + ANA (ANAM) 30 mg/kg mice): PO 10 mg/kg + ANA 30 mg/kg mice: NSE
12	Medium H Medium M	> 30000	Medium H Medium M	CC(=O)c1ccc(-c2ccc(C(C)NC(=O)N(C)C3CCN(C)CC3)c(Cl)c2Cl)s1 (centres unmarked) [Compound H0655, 3-(1-(4-(5-acetylthiophen-2-yl)-2,3-dichlorophenyl)ethyl)-1-methyl-1-(1-methylpiperidin-4-yl)urea]	70		
10	Medium	> 30000	High	CC(NC(=O)N(C)C1CCN(C)CC1)c1ccc(-c2cccnc2)c(Cl)c1Cl (centres unmarked) [Compound H0496, 3-(1-(2,3-dichloro-4-(pyridin-3-yl)phenyl)ethyl)-1-methyl-1-(1-methylpiperidin-4-yl)urea]			Mouse Food Intake, result in words (C57BL/6J mice; i.p. 10 mg/kg): NSE (10 mg/kg)
13	High H High M	39	High H High M	CC(NC(=O)N(C)C1CCN(C)CC1)c1ccc(-c2ncccn2)c(Cl)c1Cl (centres unmarked) [Compound H0619, 3-(1-(2,3-dichloro-4-(pyrimidin-2-yl)phenyl)ethyl)-1-methyl-1-(1-methylpiperidin-4-yl)urea]	34		inhibition in vivo at 10 mg/kg (C57BL/6J mice; [6]): 34%
19	High	> 30000	Medium	CC(NC(=O)N(C)C1CCN(C)CC1)c1ccc(-c2cncc(N)c2)c(Cl)c1Cl (centres unmarked) [Compound H0704, 3-(1-(4-(5-aminopyridin-3-yl)-2,3-dichlorophenyl)ethyl)-1-methyl-1-(1-methylpiperidin-4-yl)urea]			inhibition in vivo at 10 mg/kg (C57BL/6J mice; [6]): 32%
0.2	High H High M	3	High H High M	CN1CCC(N(O)C(=O)NC(CC2CC2)c2ccc(-c3cnccn3)c(Cl)c2Cl)CC1 (centres unmarked) [Compound H0761, 3-(2-cyclopropyl-1-(2,3-dichloro-4-(pyrazin-2-yl)phenyl)ethyl)-1-hydroxy-1-(1-methylpiperidin-4-yl)urea]	63	NSE	Emax (GHSR1a [3]): 2907; Mouse Food Intake, result in words (C57BL/6J mice; PO, fasted mice, dose not given): No activity; FI increase (C57BL/6J mice; PO, fed mice): 215%; Mouse Food Intake, result in words (C57BL/6J mice; fed mice, route not clear): No activity
14	Medium	> 30000	High	CN1CCC(N(C)C(=O)NC(c2ccc(-c3cncnc3)c(Cl)c2Cl)C(F)(F)F)CC1 (centres unmarked) [Compound H0686, 3-(1-(2,3-dichloro-4-(pyrimidin-5-yl)phenyl)-2,2,2-trifluoroethyl)-1-methyl-1-(1-methylpiperidin-4-yl)urea]		NSE	inhibition in vivo at 10 mg/kg (C57BL/6J mice; [6]): 61%; inhibition in vivo at 10 mg/kg (C57BL/6J mice; Mus musculus, ip, 4 h, i.p. 10 mg/kg): 61%
2	High H High M	> 30000	High H High M	C#Cc1ccc(C(C)NC(=O)N(C)C2CCN(C)CC2)c(Cl)c1Cl (centres unmarked) [Compound H0603, 3-(1-(2,3-dichloro-4-ethynylphenyl)ethyl)-1-methyl-1-(1-methylpiperidin-4-yl)urea]	34		inhibition in vivo at 0.1 mg/kg (C57BL/6J mice; Mus musculus, ip, 1 h, i.p. 0.1 mpk): 71%; inhibition in vivo at 1 mg/kg (C57BL/6J mice; Mus musculus, ip, 1 h, i.p. 1 mpk): 65%; Mouse Food Intake, result in words (C57BL/6J mice; SC, dose not given): SC NSE; Mouse Food Intake inhibition, activity up to (C57BL/6J mice; i.p. 1 mpk): ≤ 24 h
13	High H High M	> 30000	High H High M	CC(NC(=O)N(C)C1CCN(C)CC1)c1ccc(C#Cc2cccs2)c(Cl)c1Cl (centres unmarked) [Compound H0737, 3-(1-(2,3-dichloro-4-(thiophen-2-ylethynyl)phenyl)ethyl)-1-methyl-1-(1-methylpiperidin-4-yl)urea]	75	NSE	
5	High	> 30000	Medium	C#Cc1ccc(C(C)NC(=O)N(C)C2CCN(C)CC2)c(Cl)c1Cl (single isomer, unassigned) [Compound H0677, 3-(1-(2,3-dichloro-4-ethynylphenyl)ethyl)-1-methyl-1-(1-methylpiperidin-4-yl)urea]		NSE	
7	High H High M	> 30000	High H High M	CC(NC(=O)N(C)C1CCN(C)CC1)c1ccc(C#Cc2ccsc2)c(Cl)c1Cl (centres unmarked) [Compound H0759, 3-(1-(2,3-dichloro-4-(thiophen-3-ylethynyl)phenyl)ethyl)-1-methyl-1-(1-methylpiperidin-4-yl)urea]	85	no effect	
3	High	> 30000	medium	C[C@H](NC(=O)N(C)C1CCN(C)C1)c1ccc(-c2cnccn2)c(Cl)c1Cl (single isomer, unassigned) [Compound H0862]			Mouse Food Intake, result in words (C57BL/6J mice; PO (10 mg/kg) + ANA, mice, ANA dose not given): PO (10 mg/kg) + ANA: no activity in mice
6	Medium H Medium M	31	Medium H Medium M	COc1cncc(-c2ccc(C(C)NC(=O)N(C)C3CCN(C)CC3)c(Cl)c2Cl)c1 (centres unmarked) [Compound H0607, 3-(1-(2,3-dichloro-4-(5-methoxypyridin-3-yl)phenyl)ethyl)-1-methyl-1-(1-methylpiperidin-4-yl)urea]			Emax (GHSR1a [3]): 3000; Mouse Food Intake, result in words (C57BL/6J mice; i.p. 10 mg/kg): NSE (10 mg/kg)
